Assays:
human P2X7 = molecular target: T1, human P2X7 (UniProt Q99572); assay: Intracellular Calcium Flux (FLIPR) Assay; format: cell-based
T1 sequence (Q99572 1-595): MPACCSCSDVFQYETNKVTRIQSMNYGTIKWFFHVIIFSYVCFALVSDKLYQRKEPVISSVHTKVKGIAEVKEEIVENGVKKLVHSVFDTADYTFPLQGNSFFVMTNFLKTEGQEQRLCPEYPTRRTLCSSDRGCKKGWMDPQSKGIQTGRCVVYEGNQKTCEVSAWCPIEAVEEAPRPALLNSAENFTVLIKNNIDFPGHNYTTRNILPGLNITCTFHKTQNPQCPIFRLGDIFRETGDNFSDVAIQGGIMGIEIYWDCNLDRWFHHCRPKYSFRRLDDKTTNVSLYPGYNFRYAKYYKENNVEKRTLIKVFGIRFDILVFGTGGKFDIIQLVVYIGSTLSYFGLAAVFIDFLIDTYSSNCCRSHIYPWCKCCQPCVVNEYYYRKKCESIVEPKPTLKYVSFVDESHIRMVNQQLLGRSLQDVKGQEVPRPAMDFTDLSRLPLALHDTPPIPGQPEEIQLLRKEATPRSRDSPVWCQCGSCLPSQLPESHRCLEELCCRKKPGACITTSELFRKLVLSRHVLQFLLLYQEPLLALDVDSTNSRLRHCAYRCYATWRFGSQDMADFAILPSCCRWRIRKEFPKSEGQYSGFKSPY
Procedure: Intracellular Calcium Flux (FLIPR) Assay
Compound and Reagent Preparation
Stock solutions of compounds were prepared from powders as a 10 mM DMSO stock solution. These solutions were stored at RT during the two week period of these experiments to prevent freeze-thaw of the DMSO stocks. The DMSO stocks were added to the appropriate assay buffer at a concentration of 10 μM, and then diluted serially to the final concentrations that were tested. No observable precipitate was formed at any time during this process. The aqueous solutions of compounds as well as ATP (Sigma A7699) and BzATP (Sigma B6396) were prepared fresh for each day of experiment.
1321N1 cells stably expressing the full length human P2X7 gene (1321N1-hP2X7) and HEK293 cells stably expressing the full length rat P2X7 gene (HEK293-rP2X7) were obtained from the Roche Cell Culture Facility. 1321N1-hP2X7 cells were grown in Dulbecco's Modified Eagle's Medium (DMEM) high glucose supplemented with 10% FBS and […] G418. HEK293-rP2X7 cells were grown in DMEM/F-12 supplemented with 10% FBS, 1 mM CaCl2, 2 mM MgCl2, 2 mM L-Glutamine and […] G418. Cells were split such that they never became >70% confluent.
Intracellular Calcium Flux (FLIPR)
On the day prior to the experiment, 1321N1-hP2X7 or HEK293-rP2X7 cells were released into suspension with calcium-free PBS+Versene and washed by centrifugation with calcium-free PBS to remove the Versene. Cells were resuspended in growth medium at a density of 2.5×10^5 cells/mL and seeded into black walled, clear bottom 96 well plates (50,000 cells/well) approximately 18 hr prior to intracellular calcium flux experiments.
On the day of the experiment, plates were washed with FLIPR buffer (calcium- and magnesium-free Hank's Balanced Salt Solution (HBSS) supplemented with 10 mM Hepes, 2.5 mM probenecid and 2 mM calcium chloride) using a BIO-TEK 96 channel plate washer and incubated with […] fluo-3 dye at 37° C. for one hr. The dye was then removed by plate washing and the cells were allowed to equilibrate for 20 min at room temperature with antagonist or vehicle (FLIPR buffer). Agonist (100 μM BzATP final concentration for hP2X7; 5 μM BzATP final concentration or rP2X7) was added online with the FLIPR and fluorescence measurements made at 1 sec intervals for 60 sec followed by 3 sec intervals for a further 4 min (5 min total). A final addition of 5 μM ionomycin was made and the maximal BzATP-evoked fluorescence normalized to the maximal ionomycin-evoked fluorescence.

pIC50 (human P2X7) | melting point [°C] | Compound
7.58 | 165 to 166 | COc1cc(C)c(Nc2nnc3n2C(c2ccc(F)cc2)CSC3)cc1OC (stereo not shown) [Compound 18, (4,5-Dimethoxy-2-methyl-phenyl)-[5-(4-fluoro-phenyl)-5,6-dihydro-8H-[1,2,4]triazolo[3,4-c][1,4]thiazin-3-yl]-amine]
7.605 | 215 to 217 | Cc1cc2cnn(CCO)c2cc1Nc1nnc2n1[C@H](c1ccc(F)cc1)COC2 [Compound 39, 2-{6-[(R)-5-(4-Fluoro-phenyl)-5,6-dihydro-8H-[1,2,4]triazolo[3,4-c][1,4]oxazin-3-ylamino]-5-methyl-indazol-1-yl}-ethanol]
6.96 | 226 to 227 | COc1cc(C)c(Nc2nnc3n2C(c2ccc(F)cc2)CS(=O)(=O)C3)cc1OC (stereo not shown) [Compound 19, (4,5-Dimethoxy-2-methyl-phenyl)-[5-(4-fluoro-phenyl)-7,7-dioxo-5,6,7,8-tetrahydro-7λ^6-[1,2,4]triazolo[3,4-c][1,4]thiazin-3-yl]-amine]
7.59 | 161 to 162 | Cc1cc(Cl)c(OCCO)cc1Nc1nnc2n1[C@H](c1ccc(F)cc1)COC2 [Compound 21, 2-{2-Chloro-5-[(R)-5-(4-fluoro-phenyl)-5,6-dihydro-8H-[1,2,4]triazolo[3,4-c][1,4]oxazin-3-ylamino]-4-methyl-phenoxy}-ethanol]
7.705 | – | Cc1cc(Cl)c(OCCO)cc1Nc1nnc2n1[C@H](c1ccc(F)cc1)C[S@@+]([O-])C2 [Compound 47, 2-{2-Chloro-5-[(5R,7R)-5-(4-fluoro-phenyl)-7-oxo-5,6,7,8-tetrahydro-7lambda*4*- [1,2,4]triazolo[3,4-c][1,4]thiazin-3-ylamino]-4-methyl-phenoxy}-ethanol]
7.665 | – | Cc1ccc(-c2ccc(=O)[nH]n2)cc1Nc1nnc2n1[C@H](c1ccc(F)cc1)COC2 [Compound 41, 6-{3-[(R)-5-(4-Fluoro-phenyl)-5,6-dihydro-8H-[1,2,4]triazolo[3,4-c][1,4]oxazin-3-ylamino]-4-methyl-phenyl}-2H-pyridazin-3-one]

Source: patent US8871760B2, “[1,2,4]triazolo[3,4-C][1,4]oxazines as P2X7 modulators” (Roche Palo Alto LLC, priority 2009, dated 2014)
